Experiments:
AMPA receptors = assay: field EPSP response in rat hippocampal slices; type: cell-based; settings: for EPSP response, in words: comment on Table 1
Method: Hippocampal tissue slices were perfused with artificial cerebrospinal fluid containing increasing concentrations of test compound at 15-30 minute intervals separated by perfusion with ACSF without the test compound, and the percent increases in EPSP amplitude and half-width before and after compound perfusion were determined.
The physiological effects of compounds in accordance with the invention can be tested in vitro with slices of rat hippocampus according to the following procedure. Excitatory responses (field EPSPs) are measured in hippocampal slices, which are maintained in a recording chamber continuously perfused with artificial cerebrospinal fluid (ACSF). During a 15-30 minute interval, the perfusion medium is switched to one containing various concentrations of the test compounds. Responses collected immediately before and at the end of drug perfusion were superimposed in order to calculate both the percent increase in EPSP amplitude and percent increase in the width of the response at one-half the peak height (half-width). An increase in either measure, that is, of the amplitude or half-width, can be used as an indicator of beneficial therapeutic activity.
To conduct these tests, the hippocampus was removed from anesthetized, 2 month old Sprague-Dawley rats and tissue slices (400 micrometers thick) were prepared and maintained in an interface chamber at 35° C. using conventional techniques [see, for example, Dunwiddie and Lynch, J. Physiol. […] A bipolar nichrome stimulating electrode was positioned in the dendritic layer (stratum radiatum) of the hippocampal subfield CA1 close to the border of subfield CA3.
Current pulses (0.1 msec) through the stimulating electrode activate a population of the Schaffer-commissural (SC) fibers, which arise from neurons in the subdivision CA3 and terminate in synapses on the dendrites of CA1 neurons. Activation of these synapses causes them to release the transmitter glutamate. Glutamate binds to the post-synaptic AMPA receptors which then transiently open an associated ion channel and permit a sodium current to enter the postsynaptic cell. This current results in a voltage in the extracellular space (the field excitatory post-synaptic potential or field "EPSP") which is recorded by a high impedance recording electrode positioned in the middle of the stratum radiatum of CA1.
For the experiments summarized in Table 1, the intensity of the stimulation current was adjusted to produce half-maximal EPSPs (typically about 1.5-2.0 mV). Paired stimulation pulses were given every 40 sec with an interpulse interval of 200 msec (see below). The field EPSPs of the second response were digitized and analyzed to determine amplitude, half-width, and response area. If the responses were stable for 15-30 minutes (baseline), test compounds were added to the perfusion lines for a period of about 20 minutes. The perfusion was then changed back to regular ACSF.
Paired-pulse stimulation was used because stimulation of the SC fibers, in part, activates interneurons that generate an inhibitory postsynaptic potential (IPSP) in the pyramidal cells of CA1. This feed forward IPSP typically sets in after the EPSP reaches its peak. It accelerates the repolarization and shortens the decay phase of the EPSP, and thus could partially mask the effects of the test compounds. One of the relevant features of the feed-forward IPSP is that it can not be reactivated for several hundred milliseconds following a stimulation pulse. This phenomenon can be employed to advantage to eliminate IPSP by delivering paired pulses separated by 200 milliseconds and using the second ("primed") response for data analysis.

rats = assay: 8-arm radial maze memory test; type: in vivo, rat; settings: for Maze MED (Minimum Effective Dose) / minimal effective dose: threshold dose for enhancing memory in rats, 8-arm radial maze; for minimal effective dose: Rattus norvegicus, read-out: Maze MED (Minimum Effective Dose)
Method: The right bar of each pair represents the results for the same animals administered vehicle alone on alternate days of testing.
All of the data in FIG. 1 were obtained using the same group of ten rats. […] In other words, vehicle alone was administered to the group on days 1, 3 and 5, and compound at a selected dosage was administered on days 2 and 4. […] Error bars indicate the standard error of the mean (SEM). The asterisks (*) in the figure indicate data wherein p<0.05 by the paired t test.

[1] = peripheral administration in humans; Guenzi and Zanetti 1990; cited from earlier work
brain AMPA receptors = settings: metabolite of aniracetam; cited from earlier work
[2] = compound concentration 30 μM, rat hippocampal slice, field CA1
[3] = compound concentration 100 μM, rat hippocampal slice, field CA1

SMILES: O=C1c2cc3c(cc2OC2OCCN12)OCO3 (racemic) [Compound 1, 7,8-Dihydro-5aH, 10H-1,3-dioxolo[4,5-g]oxazolo[2,3-b][1,3]benzoxazin-10-one]
- EPSP Response (percent increase in amplitude of the EPSP response) (AMPA receptors; [2]): 34%
- EPSP Response (percent increase in amplitude of the EPSP response) (AMPA receptors; compound concentration 50 μM, resolved enantiomers of compound 1): 80%
- average total number of errors (rats; FIG. 1, 0.03, 0.1 and 0.5 mg/kg versus vehicle, ten rats): significant, dose-dependent reduction
- average number of correct choices before the first error (rats; FIG. 1, 0.03, 0.1 and 0.5 mg/kg versus vehicle, ten rats, retention phase): significant, dose-dependent increase
- Maze MED (Minimum Effective Dose) (rats): 0.05 mg/kg

SMILES: O=C1c2cc3c(cc2OC2OCCN12)OCO3 (single isomer, unassigned) [Column Fraction 1]
- EPSP Response (percent increase in amplitude of the EPSP response) (AMPA receptors; compound concentration 50 μM, resolved enantiomers of compound 1, listed as first-eluting enantiomer): 80%
- Maze MED (Minimum Effective Dose) (rats; listed as active enantiomer of compound 1): 0.01 mg/kg

SMILES: O=C1c2cc3c(cc2OC2OCCN12)OCO3 (single isomer, unassigned) [Column Fraction 2]
- EPSP Response (percent increase in amplitude of the EPSP response) (AMPA receptors; compound concentration 50 μM, resolved enantiomers of compound 1, listed as second-eluting enantiomer): does not detectably change
- MED of less active enantiomer relative to active enantiomer (rats; enantiomers of compound 1, maze test): 50 fold
- Maze MED (Minimum Effective Dose) (rats; listed as less active enantiomer): 0.5 mg/kg

SMILES: CC1CN2C(=O)c3cc4c(cc3OC2O1)OCO4 (single isomer, unassigned) [Compound 5.1, 7,8-Dihydro-7-methyl-5aH, 10H-1,3-dioxolo[4,5-g]oxazolo[2,3-b][1,3]benzoxazin-10-one]
- EPSP Response (percent increase in amplitude of the EPSP response) (AMPA receptors; [2]): 14%

SMILES: CC1CN2C(=O)c3cc4c(cc3OC2O1)OCO4 (single isomer, unassigned) [Compound 5.2, 7,8-Dihydro-7-methyl-5aH, 10H-1,3-dioxolo[4,5-g]oxazolo[2,3-b][1,3]benzoxazin-10-one]
- EPSP Response (percent increase in amplitude of the EPSP response) (AMPA receptors; [2]): 10%

SMILES: O=C1c2cc3c(cc2OC2CCCN12)OCO3 (centres unmarked) [Compound 1c, reference compound]
- EPSP Response (percent increase in amplitude of the EPSP response) (AMPA receptors; [3]): 25%
- minimal effective dose (rats): 1 mg/kg

SMILES: O=C(NCCO)c1cc2c(cc1O)OCO2 [Compound 1i, 2-(2-Hydroxy-4,5-methylenedioxybenzamido)ethanol]
- EPSP response, in words (AMPA receptors): increased EPSP response
- EPSP Response (percent increase in amplitude of the EPSP response) (AMPA receptors; [3]): 8%

SMILES: O=C1c2cc3c(cc2OC2OCCN12)OCCO3 (centres unmarked) [Compound 2, 8,9-Dihydro-6aH, 11H-1,4-dioxan[2,3-g]oxazolo[2,3-b][1,3]benzoxazin-11-one]
- EPSP Response (percent increase in amplitude of the EPSP response) (AMPA receptors; compound concentration 5 μM, rat hippocampal slice, field CA1): 35%
- minimal effective dose (rats): 0.01 mg/kg

SMILES: O=C1c2cc3c(cc2OC2CCCN12)OCCO3 (centres unmarked) [Compound 2c, reference compound]
- EPSP Response (percent increase in amplitude of the EPSP response) (AMPA receptors; compound concentration >30 μM, rat hippocampal slice, field CA1): 25%
- minimal effective dose (rats): 0.1 mg/kg

SMILES: CC1(C)Oc2cc3c(cc2O1)C(=O)N1CCOC1O3 (centres unmarked) [Compound 3, 7,8-Dihydro-2,2-dimethyl-5aH, 10H-1,3-dioxolo[4,5-g]oxazolo[2,3-b][1,3]benzoxazin-10-one]
- EPSP Response (percent increase in amplitude of the EPSP response) (AMPA receptors; [2]): 33%

SMILES: O=C1c2cc3c(cc2OC2SCCN12)OCO3 (centres unmarked) [Compound 4, 7,8-Dihydro-5aH, 10H-1,3-dioxolo[4,5-g]thiazolo[2,3-b][1,3]benzoxazin-10-one]
- EPSP response, in words (AMPA receptors): About the same activity
- EPSP Response (percent increase in amplitude of the EPSP response) (AMPA receptors; [2]): 20%

SMILES: CC1COC2Oc3cc4c(cc3C(=O)N12)OCO4 (centres unmarked) [Compound 6, 7,8-Dihydro-8-methyl-5aH, 10H-1,3-dioxolo[4,5-g]oxazolo[2,3-b][1,3]benzoxazin-10-one]
- EPSP Response (percent increase in amplitude of the EPSP response) (AMPA receptors; [3]): 10%

SMILES: O=C1c2cc3c(cc2OC2OCCCN12)OCO3 (centres unmarked) [Compound 7, 8,9-Dihydro-5aH, 7H, 10H-1,3-dioxolo[4,5-g][1,3]oxazino[2,3-b][1,3]benzoxazin-11-one]
- EPSP Response (percent increase in amplitude of the EPSP response) (AMPA receptors; [2]): 15%

SMILES: O=C1c2cc3c(cc2OC2CCCCN12)OCO3 (centres unmarked) [Compound 7c, reference compound]
- EPSP Response (percent increase in amplitude of the EPSP response) (AMPA receptors; compound concentration 300 μM, rat hippocampal slice, field CA1): 25%

SMILES: CC12OCCN1C(=O)c1cc3c(cc1O2)OCO3 (centres unmarked) [Compound 8, 7,8-Dihydro-5a-methyl-10H-1,3-dioxolo[4,5-g]oxazolo[2,3-b][1,3]benzoxazin-10-one]
- EPSP Response (percent increase in amplitude of the EPSP response) (AMPA receptors; [3]): 8%

SMILES: COc1ccc(C(=O)N2CCCC2=O)cc1 [aniracetam, N-anisoyl-2-pyrrolidinone]
- fraction of drug converted to anisoyl-GABA [1]: about 80%

SMILES: COc1ccc(C(=O)NCCCC(=O)O)cc1 [anisoyl-GABA]
- aniracetam-like effects (brain AMPA receptors): only weak aniracetam-like effects

From US5985871A, “Benzoxazine compounds for enhancing synaptic response” (Cortex Pharmaceuticals, Inc., priority 1997, dated 1999)
